# Literature values, collected in patent US20070092575A1, “Compositions for administering RNAIII-inhibiting peptides” (priority 2005, published 2007).
# Where two headings read alike, the source gives them in different places. Ends that are not written are not given here.
# What was measured:
# S. aureus LS-1 [1] = settings: Sepsis, mouse, strain LS-1, +RIP
# S. aureus LS-1 [2] = settings: Arthritis, mouse, strain LS-1, +RIP
# [3] = system: S. aureus Newbould 305, AE-1; settings: Mastitis, cow, strain Newbould/AE-1, +RIP
# [4] = system: MRSA, MRSE, VISA, VISE, GISA, GISE, MSSA, MSSE; settings: Graft injection, rat, +RIP
# S. aureus MS = settings: Osteomyelitis, rabbit, strain MS, +RIP
# S. aureus 8325-4 = settings: Keratitis, rabbit, strain 8325-4, +RIP
# [5] = system: S. aureus strain Smith diffuse; settings: Cellulitis/sepsis, mouse, +RIP
substance,measurement,setting,value
"YSPWTNF(-NH2) (YSPWTNF-NH2) [RIP, amide form of a synthetic RIP analogue]",% animals disease free,S. aureus LS-1 [1],44%
same,% animals disease free,S. aureus LS-1 [2],60%
same,% animals disease free,[3],70-100%
same,% animals disease free,[4],Up to 100%
same,% animals disease free,S. aureus MS,58%
same,% animals disease free,S. aureus 8325-4,40%
same,% animals disease free,[5],Up to 100%
